Experimental data: article PMC6901909, “Synergy Pattern of Short Cationic Antimicrobial Peptides Against Multidrug-Resistant Pseudomonas aeruginosa” (Frontiers in Microbiology, 2019)
≈ marks a conversion by molar mass, not a printed value. Read-outs that look alike come from different tables or passages of the source. Peptide text beside a SMILES is read from it.

Key:
MDR P. aeruginosa PA 927 = assay: microbe, parasite or virus in culture; format: cell-based, Pseudomonas aeruginosa; settings: Pseudomonas aeruginosa; conventional antibiotics; microdilution, Mueller-Hinton broth, 2–5 10^5 CFU/ml, 18 h at 37°C, read visually; at least three repeats (n = 3)
Outline: (§1)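 Inoculum 2–5 10^5 CFU/ml in Mueller-Hinton broth, compounds twofold serially diluted, polypropylene microtiter plates. Strains are MDR isolates from clinical and municipal waste water.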

P. aeruginosa PA01-wt = assay: microbe, parasite or virus in culture; format: cell-based, Pseudomonas aeruginosa; settings: microdilution, Mueller-Hinton broth, 18 h at 37°C, read visually; for MIC: Pseudomonas aeruginosa, PA01WT, conventional antibiotics, 2–5 10^5 CFU/ml, at least three repeats (n = 3)
MDR P. aeruginosa PA 910 = assay: microbe, parasite or virus in culture; format: cell-based, Pseudomonas aeruginosa; settings: for MIC: Pseudomonas aeruginosa
Outline: as §1

MDR P. aeruginosa PA253 = assay: microbe, parasite or virus in culture; format: cell-based, Pseudomonas aeruginosa; settings: microdilution, Mueller-Hinton broth, 18 h at 37°C, read visually; for MIC: Pseudomonas aeruginosa, conventional antibiotics, 2–5 10^5 CFU/ml, at least three repeats (n = 3)
Outline: as §1

MDR P. aeruginosa PA 923 = assay: microbe, parasite or virus in culture; format: cell-based, Pseudomonas aeruginosa; settings: Pseudomonas aeruginosa; conventional antibiotics; microdilution, Mueller-Hinton broth, 2–5 10^5 CFU/ml, 18 h at 37°C, read visually; at least three repeats (n = 3)
Outline: as §1

MDR P. aeruginosa PA 919 = assay: microbe, parasite or virus in culture; format: cell-based, Pseudomonas aeruginosa; settings: microdilution, Mueller-Hinton broth, 18 h at 37°C, read visually; for MIC: Pseudomonas aeruginosa, conventional antibiotics, 2–5 10^5 CFU/ml, at least three repeats (n = 3)
Outline: as §1

MDR P. aeruginosa PA 915 = assay: microbe, parasite or virus in culture; format: cell-based, Pseudomonas aeruginosa; settings: Pseudomonas aeruginosa; conventional antibiotics; microdilution, Mueller-Hinton broth, 2–5 10^5 CFU/ml, 18 h at 37°C, read visually; at least three repeats (n = 3)
Outline: as §1

[1] = system: MDR isolate of P. aeruginosa (PA 910); settings: checkerboard, MHb
Description: The checkerboard assay was used to determine the fractional inhibitory concentrations (FICs), following the protocol described in Koneman’s Color Atlas and Textbook of Diagnostic Microbiology ([Winn et al., 2006]). Briefly, combinations of peptides and antibiotics were prepared in 96-well plates (polypropylene, Corning) in a twofold dilution series. After the addition of a log-phase bacterial inoculum of 2–5 × 10^5 CFU/ml, plates were incubated at 37°C for 18 h. The FICs were determined by visual inspection and the effects of the combinations were determined using the FICs. The FIC was computed by adding two partial FIC values, FICA—the MIC of drug A, tested in combination with drug B divided by the MIC of drug A, tested alone and FICB—the MIC of drug B, tested in combination with drug A divided by the MIC of drug B, tested alone [FIC = FICA + FICB = (MICAB/MICA) + (MICBA/MICB), where MICA and MICB are the MICs of drugs A and B alone, respectively, and MICAB and MICBA are the MIC concentrations of the drugs in combination]. Here we use the European Committee for Antimicrobial Susceptibility Testing (EUCAST) definition, which is very similar to the definition provided by [Odds, 2003], except Odds define additive effects when FIC values are between 0.5 and 1 ([European Committee for Antimicrobial Susceptibility Testing [EUCAST] of the European Society of Clinical Microbiology and Infectious Diseases [ESCMID], 2000]; [Odds, 2003]). The combination of peptide (drug A) and antibiotics (drug B) was defined as synergistic if the FIC was ≤ 0.5, indifferent if the FIC was > 0.5 but ≤ 4.0 and antagonistic if the FIC was > 4.0.

MDR-PA253 = format: cell-based, Pseudomonas aeruginosa; settings: peptide + polymyxin B; checkerboard; strain comparison (Table 7)
Description: (§2) The checkerboard assay was used to determine the fractional inhibitory concentrations (FICs), following the protocol described in Koneman’s Color Atlas and Textbook of Diagnostic Microbiology ([Winn et al., 2006]). Briefly, combinations of peptides and antibiotics were prepared in 96-well plates (polypropylene, Corning) in a twofold dilution series. After the addition of a log-phase bacterial inoculum of 2–5 × 10^5 CFU/ml, plates were incubated at 37°C for 18 h. The FICs were determined by visual inspection and the effects of the combinations were determined using the FICs. The FIC was computed by adding two partial FIC values, FICA—the MIC of drug A, tested in combination with drug B divided by the MIC of drug A, tested alone and FICB—the MIC of drug B, tested in combination with drug A divided by the MIC of drug B, tested alone [FIC = FICA + FICB = (MICAB/MICA) + (MICBA/MICB), where MICA and MICB are the MICs of drugs A and B alone, respectively, and MICAB and MICBA are the MIC concentrations of the drugs in combination]. […]

MDR-PA919 = format: cell-based, Pseudomonas aeruginosa; settings: peptide + polymyxin B; checkerboard; strain comparison (Table 7)
Description: as §2

[2] = 18 h, antibiotic alone, as listed in the FIC table, read-out: MIC against PA910 in μM (antibiotics, head of Table 4)
[3] = conventional antibiotics, microdilution, Mueller-Hinton broth, 2–5 10^5 CFU/ml, 18 h at 37°C, read visually, at least three repeats (n = 3), read-out: MIC PA 910

Structure (SMILES)	MIC (MDR P. aeruginosa PA 927) [µM]	MIC (P. aeruginosa PA01-wt) [µM]	MIC (MDR P. aeruginosa PA 910; [2]) [µM]	MIC (MDR P. aeruginosa PA 910; [3]) [µM]	MIC (MDR P. aeruginosa PA253) [µM]	MIC (MDR P. aeruginosa PA 923) [µM]	MIC (MDR P. aeruginosa PA 919) [µM]	MIC (MDR P. aeruginosa PA 915) [µM]	further results
CO/N=C(\C(=O)N[C@@H]1C(=O)N2C(C(=O)[O-])=C(C[N+]3(C)CCCC3)CS[C@H]12)c1csc(N)n1 [Cefepime]	128 (≈ 61.5 µg/mL)	8 (≈ 3.84 µg/mL)	128	64 (≈ 30.8 µg/mL)	> 128	64 (≈ 30.8 µg/mL)	16 (≈ 7.69 µg/mL)	32 (≈ 15.4 µg/mL)	
CC[C@H]1OC(=O)[C@H](C)[C@@H](O[C@H]2C[C@@](C)(OC)[C@@H](O)[C@H](C)O2)[C@H](C)[C@@H](O[C@@H]2O[C@H](C)C[C@H](N(C)C)[C@H]2O)[C@](C)(O)C[C@@H](C)C(=O)[C@H](C)[C@@H](O)[C@]1(C)O [Erythromycin]	16 (≈ 11.7 µg/mL)	128 (≈ 93.9 µg/mL)	128	128 (≈ 93.9 µg/mL)	64 (≈ 47 µg/mL)	256 (≈ 188 µg/mL)	128 (≈ 93.9 µg/mL)	64 (≈ 47 µg/mL)	
CC[C@H](C)[C@H](NC(=O)[C@H](CCCNC(=N)N)NC(=O)[C@H](C)NC(=O)[C@H](CC(C)C)NC(=O)[C@@H](N)CCCNC(=N)N)C(=O)N[C@H](C(=O)N[C@H](C(=O)N[C@H](C(=O)N[C@@H](CCCNC(=N)N)C(=O)N[C@H](C(=O)N[C@@H](CCCNC(=N)N)C(=O)N[C@@H](CCCNC(=N)N)C(N)=O)C(C)C)[C@@H](C)CC)C(C)C)C(C)C [Peptide R11] (H-RLARIVVIRVRR-NH2)									FIC mean (SD), combination with KAN ([1]; confirmation study, peptide + kanamycin, Indopt versions 1/8 MHb, mean of at least three measurements (n = 3), SD in brackets): 0.75 (0.17); FIC mean (SD), combination with TET ([1]; confirmation study, peptide + tetracycline, Indopt versions 1/8 MHb, mean of at least three measurements (n = 3), SD in brackets): 0.43 (0.12); FIC, combination with AMI ([1]; peptide + amikacin, for the Indopt versions 1/8 MHb, 2–5 × 10^5 CFU/ml, 37°C, 18 h, visual, determined once (n = 1)): 2; FIC, combination with CEF ([1]; peptide + cefepime, for the Indopt versions 1/8 MHb, 2–5 × 10^5 CFU/ml, 37°C, 18 h, visual, determined once (n = 1)): 2; FIC, combination with CET ([1]; peptide + ceftazidime, for the Indopt versions 1/8 MHb, 2–5 × 10^5 CFU/ml, 37°C, 18 h, visual, determined once (n = 1)): 1; FIC, combination with CIP ([1]; peptide + ciprofloxacin, for the Indopt versions 1/8 MHb, 2–5 × 10^5 CFU/ml, 37°C, 18 h, visual, determined once (n = 1)): 0.53; FIC, combination with ERY ([1]; peptide + erythromycin, for the Indopt versions 1/8 MHb, 2–5 × 10^5 CFU/ml, 37°C, 18 h, visual, determined once (n = 1)): 0.53; FIC, combination with IMI ([1]; peptide + imipenem, for the Indopt versions 1/8 MHb, 2–5 × 10^5 CFU/ml, 37°C, 18 h, visual, determined once (n = 1)): 0.63; FIC, combination with KAN ([1]; peptide + kanamycin, for the Indopt versions 1/8 MHb, 2–5 × 10^5 CFU/ml, 37°C, 18 h, visual, determined once (n = 1)): 0.5; FIC, combination with MER ([1]; peptide + meropenem, for the Indopt versions 1/8 MHb, 2–5 × 10^5 CFU/ml, 37°C, 18 h, visual, determined once (n = 1)): 0.51; FIC, combination with PIP ([1]; peptide + piperacillin, for the Indopt versions 1/8 MHb, 2–5 × 10^5 CFU/ml, 37°C, 18 h, visual, determined once (n = 1)): 1; FIC, combination with PMB ([1]; peptide + polymyxin B, for the Indopt versions 1/8 MHb, 2–5 × 10^5 CFU/ml, 37°C, 18 h, visual, determined once (n = 1)): 0.63; FIC, combination with TET ([1]; peptide + tetracycline, for the Indopt versions 1/8 MHb, 2–5 × 10^5 CFU/ml, 37°C, 18 h, visual, determined once (n = 1)): 0.53; FIC, combination with TOB ([1]; peptide + tobramycin, for the Indopt versions 1/8 MHb, 2–5 × 10^5 CFU/ml, 37°C, 18 h, visual, determined once (n = 1)): 2; MIC against PA01 wt (P. aeruginosa PA01-wt; short AMPs, triplicate (n = 3)): 16 µM (≈ 24.1 µg/mL); MIC against PA910 in μM (peptides, Table 4) (MDR P. aeruginosa PA 910; peptide alone, as listed in the FIC table): 64 µM; MIC against MDR isolates of PA, PA253 (MDR P. aeruginosa PA253; short AMPs, triplicate (n = 3)): 64 µM; MIC against MDR isolates of PA, PA919 (MDR P. aeruginosa PA 919; short AMPs, triplicate (n = 3)): 32 µM; FIC against polymyxin B, MDR-PA253 (MDR-PA253): 0.56; FIC against polymyxin B, MDR-PA919 (MDR-PA919): 0.56
CC(C)(O/N=C(\C(=O)N[C@@H]1C(=O)N2C(C(=O)[O-])=C(C[n+]3ccccc3)CS[C@H]12)c1csc(N)n1)C(=O)O [Ceftazidime]	> 128	4 (≈ 2.19 µg/mL)	64	128 (≈ 70 µg/mL)	> 128	128 (≈ 70 µg/mL)	8 (≈ 4.37 µg/mL)	4 (≈ 2.19 µg/mL)	

More lines, main results first:

MIC (MDR P. aeruginosa PA 927) [µM]	MIC (P. aeruginosa PA01-wt) [µM]	MIC (MDR P. aeruginosa PA 910; [2]) [µM]	MIC (MDR P. aeruginosa PA 910; [3]) [µM]	MIC (MDR P. aeruginosa PA253) [µM]	MIC (MDR P. aeruginosa PA 923) [µM]	MIC (MDR P. aeruginosa PA 919) [µM]	MIC (MDR P. aeruginosa PA 915) [µM]	Structure (SMILES)	further results
32 (≈ 15 µg/mL)	0.25 to 0.5 (≈ 0.117 to 0.234 µg/mL)	32	32 (≈ 15 µg/mL)	64 (≈ 29.9 µg/mL)	32 (≈ 15 µg/mL)	64 (≈ 29.9 µg/mL)	64 (≈ 29.9 µg/mL)	NC[C@H]1O[C@H](O[C@H]2[C@H](O)[C@@H](O[C@H]3O[C@H](CO)[C@@H](O)[C@H](N)[C@H]3O)[C@H](N)C[C@@H]2N)[C@H](N)C[C@@H]1O [Tobramycin]	
> 128	2 (≈ 0.599 µg/mL)	> 128	> 128	> 128	> 128	16 (≈ 4.79 µg/mL)	> 128	C[C@@H](O)[C@H]1C(=O)N2C(C(=O)O)=C(SCCN=CN)C[C@H]12 [Imipenem]	
> 128	2 to 4 (≈ 0.767 to 1.53 µg/mL)	> 128	> 128	> 128	> 128	> 128	> 128	C[C@@H](O)[C@H]1C(=O)N2C(C(=O)O)=C(S[C@@H]3CN[C@H](C(=O)N(C)C)C3)[C@H](C)[C@H]12 [Meropenem]	
